This is an account of results in patent US9073855B2, “BCL-2 selective apoptosis-inducing agents for the treatment of cancer and immune diseases” (AbbVie Inc., priority 2008, dated 2015).

One assay has as its target GST-Bcl-2 (Homo sapiens, UniProt P10415). Description: TR-FRET binding assay, GST-Bcl-2 with F-Bak peptide probe. The settings on record: TR-FRET Binding Affinity, GST-Bcl-2, F-Bak peptide probe. In short, it runs like this:
(§1)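 Displacement of a fluorescein-labelled Bak peptide from the GST-tagged protein was followed by time-resolved FRET with a terbium anti-GST donor after 3 h incubation at room temperature. Inhibition constants were calculated with Wang's equation.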

In the next assay the test system is FL5.12/Bcl-2 cells. Description: FL5.12/Bcl-2 cell viability assay under IL-3 withdrawal (CellTitre Glo). The format is cell-based, murine. The settings on record: Mus musculus, IL-3 withdrawn 48 hrs, then 24 hrs with compound. In short, it runs like this:
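IL-3 withdrawal 48 hrs (no WEHI-3B medium), then compound 24 hrs, various concentrations; 37° C, 5% CO2; readout CellTitre Glo. Murine prolymphocytic FL5.12 stably overexpressing Bcl-2.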

A further assay concerns the target GST-Bcl-XL (Homo sapiens, UniProt Q07817). Description: TR-FRET binding assay, GST-Bcl-XL with F-Bak peptide probe. The settings on record: TR-FRET Binding Affinity, GST-Bcl-XL, F-Bak peptide probe. In short, it runs like this: as §1
Background: TR-FRET usually uses a lanthanide donor and a delayed reading to cut background.

Chain of GST-Bcl-2 (P10415 whole entry): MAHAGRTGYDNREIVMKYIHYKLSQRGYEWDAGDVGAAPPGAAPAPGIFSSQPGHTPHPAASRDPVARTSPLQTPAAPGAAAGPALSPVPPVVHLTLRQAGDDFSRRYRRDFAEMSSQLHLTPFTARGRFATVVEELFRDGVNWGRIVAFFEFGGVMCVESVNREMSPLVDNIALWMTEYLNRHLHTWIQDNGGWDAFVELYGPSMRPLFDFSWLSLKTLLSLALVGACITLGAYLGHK
Chain of GST-Bcl-XL (Q07817 whole entry): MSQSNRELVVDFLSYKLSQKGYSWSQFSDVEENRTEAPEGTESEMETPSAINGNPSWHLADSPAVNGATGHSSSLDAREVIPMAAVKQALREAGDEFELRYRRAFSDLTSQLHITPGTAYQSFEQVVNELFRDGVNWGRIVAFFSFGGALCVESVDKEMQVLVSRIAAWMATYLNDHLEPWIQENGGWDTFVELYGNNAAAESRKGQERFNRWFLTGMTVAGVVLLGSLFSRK

Broadly, the Ki is the equilibrium dissociation constant of an inhibitor or competing ligand from its target. A lower Ki goes with tighter binding. A word on the EC50: it is the concentration that produces a half-maximal response. For `COCCOCCSc1ccc(S(=O)(=O)NC(=O)c2ccc(N3CCN(CC4=C(c5ccc(Cl)cc5)CC(C)(C)CC4)CC3)cc2Oc2ccc3[nH]ccc3c2)cc1[N+](=O)[O-]` [Example 380, 4-(4-{[2-(4-chlorophenyl)-4,4-dimethylcyclohex-1-en-1-yl]methyl}piperazin-1-yl)-2-(1H-indol-5-yloxy)-N-[(4-{[2-(2-methoxyethoxy)ethyl]thio}-3-nitrophenyl)sulfonyl]benzamide], the Ki at GST-Bcl-2 turned out to be 0.083 nM; at GST-Bcl-XL it was 175 nM. Besides, in the assay on FL5.12/Bcl-2 cells, the concentration for a half-maximal effect (EC50) was 68.5 nM.

As for `COCCOCCSc1ccc(S(=O)(=O)NC(=O)c2ccc(N3CCN(CC4=C(c5ccc(Cl)cc5)CC(C)(C)CC4)CC3)cc2Oc2cccc3[nH]ccc23)cc1[N+](=O)[O-]` [Example 381, 4-(4-{[2-(4-chlorophenyl)-4,4-dimethylcyclohex-1-en-1-yl]methyl}piperazin-1-yl)-2-(1H-indol-4-yloxy)-N-[(4-{[2-(2-methoxyethoxy)ethyl]thio}-3-nitrophenyl)sulfonyl]benzamide], the Ki was determined as 0.054 nM on GST-Bcl-2 and 24.2 nM at GST-Bcl-XL. Besides, the EC50 in the assay with FL5.12/Bcl-2 cells was 71.8 nM.

As to `CC1(C)CCC(CN2CCN(c3ccc(C(=O)NS(=O)(=O)c4ccc(S(C)(=O)=O)cc4)c(Oc4ccc5[nH]ccc5c4)c3)CC2)=C(c2ccc(Cl)cc2)C1` [Example 382, 4-(4-{[2-(4-chlorophenyl)-4,4-dimethylcyclohex-1-en-1-yl]methyl}piperazin-1-yl)-2-(1H-indol-5-yloxy)-N-{[4-(methylsulfonyl)phenyl]sulfonyl}benzamide], the figures for the Ki at GST-Bcl-2 and on GST-Bcl-XL were 1.15 nM and > 660 nM, respectively. Also, in the assay with FL5.12/Bcl-2 cells, the EC50 was > 500 nM.

On to `CC1(C)CCC(CN2CCN(c3ccc(C(=O)NS(=O)(=O)c4ccc(S(C)(=O)=O)cc4)c(Oc4cccc5[nH]ccc45)c3)CC2)=C(c2ccc(Cl)cc2)C1` [Example 383, 4-(4-{[2-(4-chlorophenyl)-4,4-dimethylcyclohex-1-en-1-yl]methyl}piperazin-1-yl)-2-(1H-indol-4-yloxy)-N-{[4-(methylsulfonyl)phenyl]sulfonyl}benzamide], for which the results for the Ki on GST-Bcl-2 and at GST-Bcl-XL were 2.17 nM and > 660 nM, respectively. Further, the EC50 with FL5.12/Bcl-2 cells is > 500 nM.

Consider `CC1(C)CCC(CN2CCN(c3ccc(C(=O)NS(=O)(=O)c4ccc(OCC5CCOC(C)(C)C5)c([N+](=O)[O-])c4)c(Oc4ccc5[nH]ccc5c4)c3)CC2)=C(c2ccc(Cl)cc2)C1` (stereo not drawn) [Example 384, 4-(4-{[2-(4-chlorophenyl)-4,4-dimethylcyclohex-1-en-1-yl]methyl}piperazin-1-yl)-N-({4-[(2,2-dimethyltetrahydro-2H-pyran-4-yl)methoxy]-3-nitrophenyl}sulfonyl)-2-(1H-indol-5-yloxy)benzamide], for which the figures for the Ki at GST-Bcl-2 and on GST-Bcl-XL were 0.076 nM and > 660 nM, respectively. The concentration giving a half-maximal response (EC50) with FL5.12/Bcl-2 cells amounted to 101 nM.

Regarding `CC1(C)CCC(CN2CCN(c3ccc(C(=O)NS(=O)(=O)c4cnc(OCC5(F)CCOCC5)c(C#N)c4)c(Oc4ccc5[nH]ccc5c4)c3)CC2)=C(c2ccc(Cl)cc2)C1` [Example 385, 4-(4-{[2-(4-chlorophenyl)-4,4-dimethylcyclohex-1-en-1-yl]methyl}piperazin-1-yl)-N-({5-cyano-6-[(4-fluorotetrahydro-2H-pyran-4-yl)methoxy]pyridin-3-yl}sulfonyl)-2-(1H-indol-5-yloxy)benzamide], the Ki on GST-Bcl-2 came to 0.062 nM; on GST-Bcl-XL, 130 nM. For the same molecule, the 50% effective concentration (EC50) in the assay with FL5.12/Bcl-2 cells was 56.4 nM.

As to `CC1(C)CCC(CN2CCN(c3ccc(C(=O)NS(=O)(=O)c4cnc(OCC5CCOCC5)c(C#N)c4)c(Oc4cccc5[nH]ccc45)c3)CC2)=C(c2ccc(Cl)cc2)C1` [Example 386, 4-(4-{[2-(4-chlorophenyl)-4,4-dimethylcyclohex-1-en-1-yl]methyl}piperazin-1-yl)-N-{[5-cyano-6-(tetrahydro-2H-pyran-4-ylmethoxy)pyridin-3-yl]sulfonyl}-2-(1H-indol-4-yloxy)benzamide], the values for the Ki at GST-Bcl-2 and on GST-Bcl-XL were 0.239 nM and 118 nM, respectively. Also, the half-maximal effective concentration (EC50) in the assay on FL5.12/Bcl-2 cells is 154 nM.

Take `CC1(C)CCC(CN2CCN(c3ccc(C(=O)NS(=O)(=O)c4cnc(OCC5CCOCC5)c(Cl)c4)c(Oc4cccc5[nH]ccc45)c3)CC2)=C(c2ccc(Cl)cc2)C1` [Example 387, 4-(4-{[2-(4-chlorophenyl)-4,4-dimethylcyclohex-1-en-1-yl]methyl}piperazin-1-yl)-N-{[5-chloro-6-(tetrahydro-2H-pyran-4-ylmethoxy)pyridin-3-yl]sulfonyl}-2-(1H-indol-4-yloxy)benzamide]: the Ki at GST-Bcl-2 was found to be 0.162 nM; on GST-Bcl-XL it was 280 nM. Further, in the assay with FL5.12/Bcl-2 cells, the half-maximal effective concentration (EC50) was determined as 86.5 nM.

`CC1(C)CCC(CN2CCN(c3ccc(C(=O)NS(=O)(=O)c4cnc(OCCN5CCOCC5)c(C#N)c4)c(Oc4ccc5[nH]ccc5c4)c3)CC2)=C(c2ccc(Cl)cc2)C1` [Example 388, 4-(4-{[2-(4-chlorophenyl)-4,4-dimethylcyclohex-1-en-1-yl]methyl}piperazin-1-yl)-N-{[5-cyano-6-(2-morpholin-4-ylethoxy)pyridin-3-yl]sulfonyl}-2-(1H-indol-5-yloxy)benzamide]: the Ki on GST-Bcl-2 turned out to be 0.188 nM; at GST-Bcl-XL it was 34.8 nM. Besides, the EC50 in the assay on FL5.12/Bcl-2 cells amounted to 82.9 nM.

Take `CC1(C)CCC(CN2CCN(c3ccc(C(=O)NS(=O)(=O)c4ccc(OC5CCN(C6CCOCC6)CC5)c([N+](=O)[O-])c4)c(Oc4ccc5[nH]ccc5c4)c3)CC2)=C(c2ccc(Cl)cc2)C1` [Example 389, 4-(4-{[2-(4-chlorophenyl)-4,4-dimethylcyclohex-1-en-1-yl]methyl}piperazin-1-yl)-2-(1H-indol-5-yloxy)-N-({3-nitro-4-[(1-tetrahydro-2H-pyran-4-ylpiperidin-4-yl)oxy]phenyl}sulfonyl)benzamide]: the inhibition constant (Ki) at GST-Bcl-2 came out at 0.098 nM; on GST-Bcl-XL it was 67.2 nM. In addition, the EC50 in the assay with FL5.12/Bcl-2 cells was determined as 28.1 nM.

`CC1(C)CCC(CN2CCN(c3ccc(C(=O)NS(=O)(=O)c4ccc(OCC#CCN5CCOCC5)c([N+](=O)[O-])c4)c(Oc4ccc5[nH]ccc5c4)c3)CC2)=C(c2ccc(Cl)cc2)C1` [Example 390, 4-(4-{[2-(4-chlorophenyl)-4,4-dimethylcyclohex-1-en-1-yl]methyl}piperazin-1-yl)-2-(1H-indol-5-yloxy)-N-({4-[(4-morpholin-4-ylbut-2-ynyl)oxy]-3-nitrophenyl}sulfonyl)benzamide]: the inhibition constant (Ki) on GST-Bcl-2 worked out at 0.341 nM; at GST-Bcl-XL, 116 nM. Besides, in the assay with FL5.12/Bcl-2 cells, the EC50 is 41.2 nM.

For the molecule `C#Cc1cc(S(=O)(=O)NC(=O)c2ccc(N3CCN(CC4=C(c5ccc(Cl)cc5)CC(C)(C)CC4)CC3)cc2Oc2cccc3[nH]ccc23)cnc1OCC1CCOCC1` [Example 391, 4-(4-{[2-(4-chlorophenyl)-4,4-dimethylcyclohex-1-en-1-yl]methyl}piperazin-1-yl)-N-{[5-ethynyl-6-(tetrahydro-2H-pyran-4-ylmethoxy)pyridin-3-yl]sulfonyl}-2-(1H-indol-4-yloxy)benzamide], the results for the Ki on GST-Bcl-2 and on GST-Bcl-XL were 3.54 nM and > 660 nM, respectively. The EC50 in the assay with FL5.12/Bcl-2 cells was > 500 nM.
